In ChEMBL document CHEMBL3352178, “Antidepressant- and anxiolytic-like activity of 7-phenylpiperazinylalkyl-1,3-dimethyl-purine-2,6-dione derivatives with diversified 5-HT₁A receptor functional profile” (Bioorg Med Chem, 2015):
The source made the active and inactive calls. The calls are words filed in the database; no cut-off is given here.

Assays:
Rattus norvegicus [1] = test: Induction of lower lip retraction in rat assessed as lower lip retraction scores at 0.5 mg/kg, ip dosed 15 mins before test; format: functional; conditions: route intraperitoneal
Mus musculus [2] = test: Induction of hypothermia in mouse assessed as change in body temperature at 5 mg/kg, ip administered 30 mins before test and measured 60 mins post dose; format: functional, organism-based; design: dose 5 mg/kg
Mus musculus [3] = test: Induction of hypothermia in mouse assessed as change in body temperature at 10 mg/kg, ip administered 30 mins before test and measured 60 mins post dose; format: functional, organism-based; design: dose 10 mg/kg
Mus musculus [4] = test: Induction of hypothermia in mouse assessed as change in body temperature at 2.5 mg/kg, ip administered 30 mins before test and measured 30 mins post dose; format: functional, organism-based; design: dose 2.5 mg/kg
[5] = biological target: T1, 5-hydroxytryptamine receptor 1A (Rattus norvegicus, UniProt P19327); test: Displacement of [3H]-8-OH-DPAT from 5-HT1AR in rat hippocampus; format: tissue-based
T1 sequence (P19327 whole entry): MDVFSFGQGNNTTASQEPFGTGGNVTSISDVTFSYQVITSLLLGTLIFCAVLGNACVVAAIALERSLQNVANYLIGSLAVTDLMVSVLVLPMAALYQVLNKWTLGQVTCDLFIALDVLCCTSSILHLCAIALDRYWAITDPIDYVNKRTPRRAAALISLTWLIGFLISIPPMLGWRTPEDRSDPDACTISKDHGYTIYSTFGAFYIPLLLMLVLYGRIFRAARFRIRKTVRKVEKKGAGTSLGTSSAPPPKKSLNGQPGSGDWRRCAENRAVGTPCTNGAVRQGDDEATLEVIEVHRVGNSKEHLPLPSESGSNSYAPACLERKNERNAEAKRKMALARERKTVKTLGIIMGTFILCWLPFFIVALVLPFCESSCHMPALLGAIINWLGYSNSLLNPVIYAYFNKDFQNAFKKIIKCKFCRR

Mus musculus [6] = test: Inhibition of (+/-)-DOI-induced head twitch response in mouse assessed as head twitches per 20 mins at 5 mg/kg, ip dosed 60 mins before (+/-)-DOI injection (reference value: 21.6 +/- 3.4/20 mins); format: functional; conditions: route intraperitoneal
Mus musculus [7] = test: Induction of hypothermia in mouse assessed as change in body temperature at 5 mg/kg, ip administered 30 mins before test and measured 30 mins post dose; format: functional, organism-based; design: dose 5 mg/kg
Mus musculus [8] = test: Induction of hypothermia in mouse assessed as change in body temperature at 5 mg/kg, ip administered 30 mins before test and measured 90 mins post dose; format: functional, organism-based; design: dose 5 mg/kg
[9] = biological target: 5-hydroxytryptamine receptor 6 (Homo sapiens, UniProt P50406); test: Displacement of [3H]LSD from human cloned 5-HT6R expressed in HEK293 cells; format: cell-based
Mus musculus [10] = test: Inhibition of (+/-)-DOI-induced head twitch response in mouse assessed as head twitches per 20 mins at 10 mg/kg, ip dosed 60 mins before (+/-)-DOI injection (reference value: 21.6 +/- 3.4/20 mins); format: functional; conditions: route intraperitoneal
Mus musculus [11] = test: Antidepressant-like activity in mouse assessed as reduction in immobility time at 5 mg/kg, ip dosed 60 mins before test by forced swim test; format: functional; design: scale not given: the % may be the effect or the level left; conditions: route intraperitoneal
Mus musculus [12] = test: Antidepressant-like activity in mouse assessed as reduction in immobility time at 10 mg/kg, ip dosed 60 mins before test by forced swim test; format: functional; design: scale not given: the % may be the effect or the level left; conditions: route intraperitoneal
[13] = biological target: 5-hydroxytryptamine receptor 2A (Rattus norvegicus, UniProt P14842); test: Displacement of [3H]-ketanserin from 5-HT2AR in rat cortex
Rattus norvegicus [14] = test: Induction of lower lip retraction in rat assessed as lower lip retraction scores at 1 mg/kg, ip dosed 15 mins before test; format: functional; conditions: route intraperitoneal
Mus musculus [15] = test: Induction of hypothermia in mouse assessed as change in body temperature at 10 mg/kg, ip administered 30 mins before test and measured 30 mins post dose; format: functional, organism-based; design: dose 10 mg/kg
Mus musculus [16] = test: Induction of hypothermia in mouse assessed as change in body temperature at 2.5 mg/kg, ip administered 30 mins before test and measured 30 mins post dose in presence of 0.3 mg/kg, sc 5HT1A receptor antagonist WAY 100635; format: functional, organism-based
Mus musculus [17] = test: Induction of hypothermia in mouse assessed as change in body temperature at 2.5 mg/kg, ip administered 30 mins before test and measured 120 mins post dose; format: functional, organism-based; design: dose 2.5 mg/kg
Mus musculus [18] = test: Effect on spontaneous locomotor activity in mouse at 20 mg/kg, ip; format: ADME, organism-based; design: dose 20 mg/kg, route intraperitoneal; conditions: in vivo
[19] = biological target: 5-hydroxytryptamine receptor 7 (Homo sapiens, UniProt P34969); test: Displacement of [3H]]-5-CT from human cloned 5-HT7R expressed in HEK293 cells; format: cell-based
Mus musculus [20] = test: Antidepressant-like activity in mouse assessed as reduction in immobility time at 5 mg/kg, ip dosed 60 mins before test in presence of 0.3 mg/kg, sc 5HT1A receptor antagonist WAY 100635 by forced swim test; format: functional, organism-based
Mus musculus [21] = test: Induction of hypothermia in mouse assessed as change in body temperature at 2.5 mg/kg, ip administered 30 mins before test and measured 60 mins post dose; format: functional, organism-based; design: dose 2.5 mg/kg
Rattus norvegicus [22] = test: Induction of lower lip retraction in rat assessed as lower lip retraction scores at 1 mg/kg, ip dosed 45 mins after 0.3 mg/kg, sc 5HT1A receptor antagonist WAY 100635; format: functional
Mus musculus [23] = test: Induction of hypothermia in mouse assessed as change in body temperature at 5 mg/kg, ip administered 30 mins before test and measured 60 mins post dose in presence of 0.3 mg/kg, sc 5HT1A receptor antagonist WAY 100635; format: functional, organism-based
Mus musculus [24] = test: Induction of hypothermia in mouse assessed as change in body temperature at 2.5 mg/kg, ip administered 30 mins before test and measured 60 mins post dose in presence of 0.3 mg/kg, sc 5HT1A receptor antagonist WAY 100635; format: functional, organism-based
Mus musculus [25] = test: Inhibition of (+/-)-DOI-induced head twitch response in mouse assessed as head twitches per 20 mins at 2.5 mg/kg, ip dosed 60 mins before (+/-)-DOI injection (reference value: 21.6 +/- 3.4/20 mins); format: functional; conditions: route intraperitoneal
Mus musculus [26] = test: Inhibition of (+/-)-DOI-induced head twitch response in mouse dosed intraperitoneally 60 mins before (+/-)-DOI injection; format: functional
Mus musculus [27] = test: Induction of hypothermia in mouse assessed as change in body temperature at 5 mg/kg, ip administered 30 mins before test and measured 120 mins post dose; format: functional, organism-based; design: dose 5 mg/kg
Mus musculus [28] = test: Induction of hypothermia in mouse assessed as change in body temperature at 2.5 mg/kg, ip administered 30 mins before test and measured 90 mins post dose; format: functional, organism-based; design: dose 2.5 mg/kg
Mus musculus [29] = test: Induction of hypothermia in mouse assessed as change in body temperature at 5 mg/kg, ip administered 30 mins before test and measured 30 mins post dose in presence of 0.3 mg/kg, sc 5HT1A receptor antagonist WAY 100635; format: functional, organism-based
Mus musculus [30] = test: Induction of hypothermia in mouse assessed as change in body temperature at 10 mg/kg, ip administered 30 mins before test and measured 90 mins post dose; format: functional, organism-based; design: dose 10 mg/kg
Mus musculus [31] = test: Effect on spontaneous locomotor activity in ip dosed mouse during 2 to 6 mins; format: ADME, organism-based; conditions: in vivo
D(2) dopamine receptor = D(2) dopamine receptor (Rattus norvegicus, UniProt P61169); test: Displacement of [3H]-spiperone from dopamine D2 receptor in rat striatum
Mus musculus [32] = test: Anxiolytic-like activity in mouse assessed as increase in number of punished crossings at 20 mg/kg, ip dosed 60 mins before test in presence of 0.3 mg/kg, sc 5HT1A receptor antagonist WAY 100635 by four plate test; format: functional, organism-based
Mus musculus [33] = test: Induction of hypothermia in mouse assessed as change in body temperature at 10 mg/kg, ip administered 30 mins before test and measured 120 mins post dose; format: functional, organism-based; design: dose 10 mg/kg
Mus musculus [34] = test: Inhibition of (+/-)-DOI-induced head twitch response in mouse assessed as head twitches per 20 mins at 20 mg/kg, ip dosed 60 mins before (+/-)-DOI injection (reference value: 21.6 +/- 3.4/20 mins); format: functional; conditions: route intraperitoneal
Mus musculus [35] = test: Anxiolytic-like activity in mouse assessed as increase in number of punished crossings at 20 mg/kg, ip dosed 60 mins before test by four plate test; format: functional; conditions: route intraperitoneal

Chain of D(2) dopamine receptor (P61169 whole entry): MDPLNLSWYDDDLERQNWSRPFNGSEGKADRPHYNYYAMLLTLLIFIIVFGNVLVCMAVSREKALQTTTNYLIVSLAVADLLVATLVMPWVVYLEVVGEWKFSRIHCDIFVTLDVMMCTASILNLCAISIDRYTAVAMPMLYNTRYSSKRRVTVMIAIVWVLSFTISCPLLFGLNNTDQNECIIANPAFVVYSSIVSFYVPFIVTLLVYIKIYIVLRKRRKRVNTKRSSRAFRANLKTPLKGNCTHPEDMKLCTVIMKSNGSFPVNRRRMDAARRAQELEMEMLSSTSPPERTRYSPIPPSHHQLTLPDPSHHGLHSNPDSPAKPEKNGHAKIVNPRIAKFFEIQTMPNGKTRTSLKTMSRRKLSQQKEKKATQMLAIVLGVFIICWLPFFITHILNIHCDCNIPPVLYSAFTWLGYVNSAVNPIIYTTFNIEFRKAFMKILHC
Chain of 5-hydroxytryptamine receptor 7 (P34969 whole entry): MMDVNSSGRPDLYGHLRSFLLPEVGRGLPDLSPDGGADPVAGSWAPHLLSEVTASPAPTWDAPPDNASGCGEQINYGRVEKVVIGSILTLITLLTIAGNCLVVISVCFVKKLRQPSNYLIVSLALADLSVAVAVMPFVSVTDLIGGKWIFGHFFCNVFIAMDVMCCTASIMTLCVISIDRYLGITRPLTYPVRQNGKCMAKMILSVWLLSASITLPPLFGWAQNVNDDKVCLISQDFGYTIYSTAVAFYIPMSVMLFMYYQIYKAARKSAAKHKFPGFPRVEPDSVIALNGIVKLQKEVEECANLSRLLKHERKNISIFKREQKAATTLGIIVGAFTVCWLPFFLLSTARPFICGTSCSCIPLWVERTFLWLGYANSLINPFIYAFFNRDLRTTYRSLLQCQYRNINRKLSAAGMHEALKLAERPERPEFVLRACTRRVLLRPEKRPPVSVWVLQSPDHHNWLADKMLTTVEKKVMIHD
Chain of 5-hydroxytryptamine receptor 2A (P14842 whole entry): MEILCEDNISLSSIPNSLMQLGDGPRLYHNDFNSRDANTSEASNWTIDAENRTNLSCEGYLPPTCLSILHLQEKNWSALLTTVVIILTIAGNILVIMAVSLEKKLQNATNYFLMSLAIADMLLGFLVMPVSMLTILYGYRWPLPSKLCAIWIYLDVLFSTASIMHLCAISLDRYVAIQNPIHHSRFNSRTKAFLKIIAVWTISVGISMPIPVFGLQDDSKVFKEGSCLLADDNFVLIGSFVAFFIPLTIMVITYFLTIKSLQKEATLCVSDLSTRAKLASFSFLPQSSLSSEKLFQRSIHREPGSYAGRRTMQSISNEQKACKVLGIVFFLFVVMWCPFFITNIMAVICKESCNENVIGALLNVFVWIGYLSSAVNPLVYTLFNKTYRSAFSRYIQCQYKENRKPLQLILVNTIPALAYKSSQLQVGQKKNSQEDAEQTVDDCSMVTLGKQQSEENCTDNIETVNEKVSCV
Chain of 5-hydroxytryptamine receptor 6 (P50406 whole entry): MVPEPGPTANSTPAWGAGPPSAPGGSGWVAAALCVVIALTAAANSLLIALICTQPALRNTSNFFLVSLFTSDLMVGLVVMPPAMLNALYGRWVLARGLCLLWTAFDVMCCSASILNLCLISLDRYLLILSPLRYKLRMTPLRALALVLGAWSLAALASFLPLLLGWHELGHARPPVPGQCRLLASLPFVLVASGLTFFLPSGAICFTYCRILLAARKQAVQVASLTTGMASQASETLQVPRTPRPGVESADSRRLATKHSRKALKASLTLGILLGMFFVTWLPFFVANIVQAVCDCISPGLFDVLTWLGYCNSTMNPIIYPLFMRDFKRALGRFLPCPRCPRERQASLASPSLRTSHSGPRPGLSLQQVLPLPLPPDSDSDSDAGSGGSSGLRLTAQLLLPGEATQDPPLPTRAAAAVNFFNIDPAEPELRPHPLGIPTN

Cl.Cn1c(=O)c2c(ncn2CCCCN2CCN(c3cccc(Cl)c3)CC2)n(C)c1=O
Activity (Rattus norvegicus [1]): 0.3
deltaT (Mus musculus [2]): -1.1 °C
deltaT (Mus musculus [3]): -1.7 °C
deltaT (Mus musculus [4]): -1.8 °C
Ki [5]: 1 nM
Activity (Mus musculus [6]): 7.7
deltaT (Mus musculus [7]): -2.1 °C
deltaT (Mus musculus [8]): -0.6 °C
Ki [9]: 5.15 µM
Activity (Mus musculus [10]): 3.8
Activity (Mus musculus [11]): 37%
Activity (Mus musculus [12]): 30%
Ki [13]: 102 nM
Activity (Rattus norvegicus [14]): 1.5
deltaT (Mus musculus [15]): -2 °C
deltaT (Mus musculus [16]): -0.8 °C
deltaT (Mus musculus [17]): 0 °C
Activity (Mus musculus [18]): Non-toxic
Ki [19]: 479 nM
Activity (Mus musculus [20]): inactive
deltaT (Mus musculus [21]): -0.8 °C
Activity (Rattus norvegicus [22]): 0.1
deltaT (Mus musculus [23]): -0.6 °C
deltaT (Mus musculus [24]): -0.2 °C
Activity (Mus musculus [25]): 11
inhibition (Mus musculus [26]): Dose-dependent effect
ED50 (Mus musculus [26]; ip, read-out: ID50 (the source's name)): 5.09 mg/kg
deltaT (Mus musculus [27]): -0.2 °C
deltaT (Mus musculus [28]): -0.1 °C
deltaT (Mus musculus [29]): -1.5 °C
deltaT (Mus musculus [30]): -1.3 °C
Activity (Mus musculus [31]): Non-toxic
Ki (D(2) dopamine receptor): 195 nM
Activity (Mus musculus [32]): inactive
deltaT (Mus musculus [33]): 0.8 °C
Activity (Mus musculus [34]): 3.2
Activity (Mus musculus [35]): 57%
